Test results as given in US9272038B2, “Wound care formulation” (Innovation Ulster Limited, priority 2007, dated 2016).
Structures can show the parent of a compound that is named as a salt.

How the values were obtained:
Type in all cases: physicochemical
[1] = pH measurement of PVA-borate hydrogels (spear-tip electrode); details: 10% w/w PVA and 2.5% w/w borax hydrogel, n=4
Protocol: PVA-borate hydrogels (10% w/w PVA and 2.5% w/w borax) were prepared by combining equal volumes of separate stock solutions (20% w/w PVA and 5% w/w borax) prepared in de-ionised water. A homogenous gel was formed upon heating the mixture to 80° C. for approximately two hours, with periodic stirring. Gels were stored for 48 hours at room temperature to allow complete gelation prior to evaluation. Excipients, such as lidocaine HCL and D-mannitol, were added to the sodium tetraborate solution prior to addition to the PVA solution. The pH of gel formulations were recorded using a Sensorex® spear-tip electrode ([…], Sensys Ltd, Stevenage), which is designed to penetrate and measure the pH of semi-solid systems. Measurements of pH in borax solutions (5% w/v), following successive additions of D-mannitol (5.0×10^-3 mole), were recorded using the same electrode apparatus. Additionally, the effect of the polyols on the concentration of free borate ions within the hydrogel was estimated using changes in the pH of the gel after addition of a defined polyol. Standard hydrogels of 10% w/w PVA and 2.5% borax were produced containing each polyol at a concentration of 0.1 Molar. The pH of each gel was measured upon equilibration, with each measurement performed for four samples (n=4). Similarly, the changes in gel hardness arising from variations in free borate induced by polyol addition were determined using texture profile analysis, as described above. As before, four replicate measurements were made in each case at ambient temperature (n=4).

[2] = Texture profile analysis (hardness) of PVA-borate hydrogels; details: for Hardness (N): 10% w/w PVA and 2.5% w/w borax hydrogel with 0.1 M polyol, n=4; for effect on hardness compared to the hydrogel containing no polyol: hydrogel loaded with 0.1 Molar polyol
Protocol: Evaluation of the mechanical properties of PVA-borate hydrogels was performed using a TA-XT2 Texture Analyzer (Stable Micro Systems, […], UK) in texture profile analysis (TPA) mode. Formulations were placed in poly(propylene) containers (44 mm diameter×55 mm depth) (Sarstedt©, Wexford, Republic of Ireland) with any air bubbles in the gels removed upon standing at ambient temperature (>6.0 h) prior to investigation. The tubular probe (10.0 mm in diameter and 150.0 mm in length) was compressed twice into each sample to a depth of 15.0 mm at a rate of 10.0 mm s^-1, with a 15.0 s delay between compressions. Four replicate measurements were made in each case at ambient temperature. Hardness and compressibility, which have previously been used to define the mechanical properties of hydrogels were derived from the force-time plots produced by the TPA analysis^30. Those skilled in the art of TPA, will be familiar with production of said force-time plots and derivation of hardness and compressibility data from aforementioned data. Hardness, the force required to achieve a given deformation, was determined by the force maximum of the first positive curve of the force-time plot^30. Compressibility, the work required to deform the product during the first compression of the probe was determined by the area under the first positive curve of the force-time plot^30. Additionally, the effect of the polyols on the concentration of free borate ions within the hydrogel was estimated using changes in the pH of the gel after addition of a defined polyol. Standard hydrogels of 10% w/w PVA and 2.5% borax were produced containing each polyol at a concentration of 0.1 Molar. The pH of each gel was measured upon equilibration, with each measurement performed for four samples (n=4). Similarly, the changes in gel hardness arising from variations in free borate induced by polyol addition were determined using texture profile analysis, as described above. As before, four replicate measurements were made in each case at ambient temperature (n=4).

[3] = Comparison of polyol affinity for borate ions by direct titrimetry; details: polyol added to 100.0 ml of 5% w/v Borax solution; calculated from pH with Equation 3
Protocol: The following polyols were used in this investigation; maltitol, dulcitol, D-mannitol, D-sorbitol, xylitol, meso-erythritol, 1,2-propanediol, glycerol. Additionally, the affect of propan-2-ol was also investigated. The affinity of each polyol for borate was estimated using direct titrimetry and by analysis of gel characteristics. In the former method, incremental additions (1.0 ml) of a 0.5 M solution of polyol was added to 100.0 ml of 5% w/v Borax solution and the pH recorded. […] 3; 10^(pH-pKa)[H3BO3]0═[B(OH)4^−]f (3) where, [H3BO3]0 is the concentration of boric acid, [B(OH)4^−]f is the concentration of free borate ions and pKa is the pKa of boric acid (derived from the initial pH of the 5% w/v borax solution). […] These assumptions are consistent with work of other researchers^27,28.

[4] = pHp of lidocaine hydrochloride within PVA-Borate hydrogels, derived experimentally
Protocol: […]. The determination of the pHp in the aqueous environment is determined using the equation (1), whilst the determination of the pHp within the gel environment is derived experimentally. […].

pH of hydrogel with 0.1 M polyol [1] | Hardness (N) [2] [N] | % reduction in free borate/0.0005 moles [3] [%] | Compound | effect on hardness compared to the hydrogel containing no polyol [2] | pHp (Gel) ([4]; 1% w/v lidocaine HCl in PVA-Borate hydrogel) | pHp (Gel) ([4]; 2% w/v lidocaine HCl in PVA-Borate hydrogel) | pHp (Gel) ([4]; 3% w/v lidocaine HCl in PVA-Borate hydrogel) | pHp (Gel) ([4]; 4% w/v lidocaine HCl in PVA-Borate hydrogel, hydrochloride) | pHp (Gel) ([4]; 4% w/v lidocaine HCl in PVA-Borate hydrogel, listed as lidocaine hydrochloride monohydrate, hydrochloride)
7.74 ± 0.023 | 4.07 ± 0.25 | 7.47 ± 1.10 | OC[C@@H](O)[C@@H](O)[C@H](O)[C@H](O)CO [D-mannitol] | – | – | – | – | – | –
7.79 ± 0.02 | 4.37 ± 0.31 | 6.87 ± 1.25 | OC[C@@H](O)[C@@H](O)[C@H](O)[C@@H](O)CO [D-sorbitol] | – | – | – | – | – | –
7.67 ± 0.015 | 3.87 ± 0.38 | 7.46 ± 1.41 | OC[C@@H](O)[C@H](O)[C@H](O)[C@@H](O)CO [Dulitol] | – | – | – | – | – | –
8.17 +/− 0.022 | – | 3.36 ± 1.34 | OCC(O)CO [Glycerol] | – | – | – | – | – | –
– | – | – | CCN(CC)CC(=O)Nc1c(C)cccc1C [Lidocaine HCl, lidocaine hydrochloride] | – | ≧8.15 | ≧7.75 | ≧7.45 | ≧7.26 | > 7.26
8.10 ± 0.01 | 9.01 ± 0.45 | 4.97 ± 1.17 | OC[C@@H](O)[C@@H](O)CO [Meso-erythritol] | – | – | – | – | – | –
8.393 +/− 0.012 | – | 0.51 ± 1.09 | CC(C)O [Propan-2-ol] | no affect on the hardness of the hydrogel | – | – | – | – | –
7.95 ± 0.038 | 5.18 ± 0.31 | 4.97 ± 1.21 | OC[C@@H](O)[C@H](O)[C@@H](O)CO [Xylitol] | – | – | – | – | – | –
7.63 ± 0.019 | 2.79 ± 0.14 | 7.25 ± 1.59 | Malititol | – | – | – | – | – | –

Compound | pH of hydrogel with 0.1 M polyol [1] | Hardness (N) [2] [N] | % reduction in free borate/0.0005 moles [3] [%] | effect on hardness compared to the hydrogel containing no polyol [2] | pHp (Gel) ([4]; 1% w/v lidocaine HCl in PVA-Borate hydrogel) | pHp (Gel) ([4]; 2% w/v lidocaine HCl in PVA-Borate hydrogel) | pHp (Gel) ([4]; 3% w/v lidocaine HCl in PVA-Borate hydrogel) | pHp (Gel) ([4]; 4% w/v lidocaine HCl in PVA-Borate hydrogel, hydrochloride) | pHp (Gel) ([4]; 4% w/v lidocaine HCl in PVA-Borate hydrogel, listed as lidocaine hydrochloride monohydrate, hydrochloride)
CC(O)CO (centres unmarked) [1,2-propandiol] | 8.39 ± 0.02 | 14.10 ± 0.5 | 2.08 ± 0.78 | no affect on the hardness of the hydrogel | – | – | – | – | –
